# Data reported in US20110229411A1, “USE OF P2X7 PATHWAY FOR ASSESSING THE SENSITIVITY OF A SUBJECT TO A CANCER TREATMENT” (INSTITUT GUSTAVE ROUSSY, priority 2008, published 2011).
# B1: IL-1β: recombinant mouse IL-1β from R&D Systems (protein)
# chain: VPIRQLHYRLRDEQQKSLVLSDPYELKALHLNGQNINQQVIFSMSFVQGEPSNDKIPVALGLKGKNLYLSCVMKDGTPTLQLESVDPKQYPKKKMEKRFVFNKIEVKSKVEFESAEFPNWYISTSQAEHKPVFLGNNSGQDIIDFTMESVSS
# Key:
# CT26 colon cancer cells = experiment: ATP assays on doxorubicin-treated tumor cells; assay type: cell-based, mouse; details: CT26, doxorubicin 20 μM
# Procedure: (§1) FIG. 3: Identification of AT P release as a limiting factor of anti-cancer vaccination by dying CT 26 cells. FIG. 3a-b Idem as in FIGS. 1a and b, but using the mouse colon cancer CT26 exposed to doxorubicin. Data of one representative experiment out of three are depicted. FIG. 3. c-d. […] Mice were immunized with PBS or dying CT26 tumor cells. Dying CT26 were first treated with doxorubicin for 24 hours and were then incubated with antimycin A/deoxyglucose (A/D) for 20 min. Cells were washed after A/D exposure and before subcutaneous inoculation (c). Alternatively, dying CT26 were inoculated alone or together with oxiATP (d). Seven days later, mice (15 per group in a total of 3 distinct experiments) were inoculated with live syngeneic tumor cells and tumor growth was monitored. * p<0.05.
# Plates were read in a Fluostar luminometer (BMG Labtech).
# CT26 cells [1] = experiment: Cell death induction for vaccination, FACS analysis of Annexin V+ DAPI+ cells; assay type: cell-based, mouse; details: CT26, 20 μM doxorubicin, 24 hours
# Procedure: Anti cancer vaccination was assessed using a previously described setting (Casares et al., 2005; Obeid et al., 2007). CT26 cells were cultured with either PBS or 20 μM doxorubicin, and MCA205 with either PBS or 1 μM mitoxantrone for 24 h. All these treatments led to ˜50% of Annexin V^+ DAPI^+ cells, as assessed by FACS analysis at 24 hours. After careful washes, cells were resuspended in sterile PBS. CT26 cells were incubated in the presence or in the absence of antimycin A and deoxyglucose (2 μg/ml and 30 mM, respectively) for 20 min, or in the presence or in the absence of Oxi-ATP ([…]). After 3 washes, 3×10^6 dying CT26 cells (or 3×10^5 MCA205 cells) were injected subcutaneously into the left flank of mice. In some experiments, 100 μg of IL-1Ra (Anakinra) was injected along with the dying cells. Seven days later, mice were rechallenged into the right flank with 5×10^5 live CT26 cells (or, alternatively, 3.10^4 live MCA205 cells). Tumor growth was then monitored weekly.
# [2] = test system: T cell priming for IFNγ production; experiment: Priming assay: dying EG7 cells injected into the footpad, IFNγ secretion of restimulated popliteal lymph node cells; assay type: in vivo, mice
# Procedure: 1.10^6 CT26, EG7, or B16F10 cells were either left untreated or treated with doxorubicin (20 μM) or oxaliplatin (5 μg/ml) for 24 h. Cells were then injected into the footpad of syngenic mice. In some experiments, 20 or 100 μg of IL-1Ra (Anakinra) or 250 ng of recombinant murine IL-1β (or 250 ng of IL-6 or 50 ng of IL-12) was injected along with dying tumor cells into the footpad of mice. Alternatively, DC were cocultured with EG7 cells for 2 hours, followed by the purification of CD11c^+ cells with anti-CD11c mAb coupled to magnetic beads (Miltenyi Biotec, Paris, France) and injection of these purified DC into the footpad. Five days later, gangliocytes from popliteal lymph nodes were harvested, seeded in 96 U-well plates (3.10^5 cells per well), and restimulated with 1 mg/ml OVA protein. Restimulation with MCA205 or CT26 cells was performed using 3×10^4 tumor cells killed by 5 min heating at 42° C. followed by 1 cycle of freezing/thawing in liquid nitrogen. For B16F10, restimulation was achieved using gp100 peptide as previously described (Overwijk et al., 1998). As a positive control of T cell priming, mice were injected with OVA protein (1 mg) (or gp100 for B16F10) and the association of CpG (10 μg) and Poly I:C (5 μg). For CT26 priming experiments, cell lysate plus LPS (250 ng) was used as a positive control. Supernatants were harvested 72 hours later, and IFNγ secretion was assessed by ELISA. Alternatively, cells were stimulated with PMA (10 ng/ml) and ionomycin (1 μg/ml) for 1 h, followed by the addition of brefeldin A (10 μg/ml for 6 h at 37° C.) (Apetoh et al., 2007), surface staining with Abs specific for CD3, CD4 or CD8, fixation and permeabilization (Cytofix/cytoperm kit) and then labeled with antibodies specific for IFNγ. Immunofluorescence was analyzed on a LSRII flow cytometer (BD Biosciences) with FACSDiva software.
# CT26 cells [3] = experiment: Anti-cancer vaccination with dying CT26 cells and rechallenge with live tumor cells; assay type: in vivo, mice; details: doxorubicin-treated CT26, rechallenge with live cells seven days later
# Procedure: as §1
# Anti cancer vaccination was assessed using a previously described setting (Casares et al., 2005; Obeid et al., 2007). CT26 cells were cultured with either PBS or 20 μM doxorubicin, and MCA205 with either PBS or 1 μM mitoxantrone for 24 h. All these treatments led to ˜50% of Annexin V^+ DAPI^+ cells, as assessed by FACS analysis at 24 hours. After careful washes, cells were resuspended in sterile PBS. […] Tumor growth was then monitored weekly.
# [4] = test system: T cell priming for IFNγ production; experiment: Priming assay with dying CT26 cells, restimulation with CT26 or MCA205 tumor lysate, IFNγ production; assay type: in vivo; details: IL-1Ra 100 μg co-inoculated, WT mice
# Procedure: FIG. 14: The immunogenicity of cell death requires active IL-1β. Mice were immunized with PBS or dying CT26 tumor cells treated with doxorubicin or freeze thawing and LPS. Dying CT26 were co-inoculated together with IL-1Ra (100 μg) into the […] of WT mice. Five days later, mice (n=5 mice/group) were sacrificed to harvest popliteal lymph nodes for in vitro restimulation with CT26 or MCA205 tumor lysate and assessment of IFNγ production. *p<0.05.
# 1.10^6 CT26, EG7, or B16F10 cells were either left untreated or treated with doxorubicin (20 μM) or oxaliplatin (5 μg/ml) for 24 h. Cells were then injected into the footpad of syngenic mice. In some experiments, 20 or 100 μg of IL-1Ra (Anakinra) or 250 ng of recombinant murine IL-1β (or 250 ng of IL-6 or 50 ng of IL-12) was injected along with dying tumor cells into the footpad of mice. Alternatively, DC were cocultured with EG7 cells for 2 hours, followed by the purification of CD11c^+ cells with anti-CD11c mAb coupled to magnetic beads (Miltenyi Biotec, Paris, France) and injection of these purified DC into the footpad. […] Supernatants were harvested 72 hours later, and IFNγ secretion was assessed by ELISA. […] Immunofluorescence was analyzed on a LSRII flow cytometer (BD Biosciences) with FACSDiva software.
# EL4 thymoma tumors = experiment: Chemotherapy of EL4 tumors established in mice; assay type: in vivo; details: co-treatment, data not shown
# Procedure: (§2) FIG. 17. The anti-cancer activity of oxaliplatin depends on P2X7 and the NALP3 inflammasome. FIG. 17a,b,c. Therapeutic efficacy of oxaliplatin on established tumors depends on the integrity of the immune system on the P2X7/NALP3/casp-1 axis. EL4 thymoma tumors were established in syngenic mice bearing the indicated genotypes (a-c) or injected with anti-CD8 antibody (a). When the tumor reached 70-90mm^2 in size, mice were either left untreated or were treated with oxaliplatin. Each treatment group included 5-6 mice (X±SEM), and each experiment was repeated three times with similar results. * p<0.05. d. Caspase 1 is required for the immune response promoted by oxaliplatin chemotherapy. EG7 tumors established in the thigh were treated with one systemic injection of oxaliplatin. Inguinal lymph node cells were harvested 5 days later, and the gangliocytes were restimulated in vitro. IFNγ secretion was assessed by ELISA. Results (means of triplicates ±SEM, n=3) are representative of one typical experiment out of three. ^*P<0.01. FIG. 17d. The efficacy of anthracyclines against established colon cancer is dependent on IL-1β. CT26 tumors established for 10 days in WT mice were treated with one local injection of doxorubicin in the absence or presence of neutralizing anti-IL-1β Ab (n=10/group, *p<0.05). FIG. 17e. A single-nucleotide polymorphism (SNP) in P2X7 (rs3751143) affects the long-term efficacy of conventional anti-cancer therapy in breast cancer patients. Comparative Kaplan-Meier estimates of time to metastasis in two groups of patients bearing the normal (Glu496Glu) or loss-of-function (Glu496Ala) P2X7 alleles. The time to metastatic progression was analyzed in 225 women with non-metastatic breast cancer who received adjuvant chemotherapy with anthracylines.
# Wild type or loss-of-function C57BL/6 mice were injected s.c. with 10^6 EL4 cells into the right flank. Alternatively, wild-type BALB/c mice were injected with 5.10^5 CT26 cells into the right flank. Mice were then randomly assigned to treatment groups of 4-6 mice each. The tumor surface was monitored using a caliper. When tumor size reached 70-90 mm^2 for EL4 (9-12 days post-injection) or 60-80 mm^2 for CT26 (8-10 days post-injection), mice received chemotherapy (Apetoh et al., 2007). Mice bearing EL4 tumors were injected with oxaliplatin (5 mg/kg i.p), while mice bearing CT26 tumors were injected with doxorubicin (50 μl, 4 mM i.t). In some experiments, CT26 tumor-bearing mice received two injections (on day 0 and day 2 after the commencement of chemotherapeutic treatment) of IL-1Ra (McIntyre et al., 1991) (100 μg), anti-IL-1 antibody (100 μg) or hamster serum as a control.
# CT26 tumors = experiment: Chemotherapy of CT26 tumors established in mice; assay type: in vivo; details: doxorubicin i.t.; 100 μg on day 0 and day 2, WT mice
# Procedure: as §2, with “The efficacy of anthracyclines against established colon cancer is dependent on IL-1β. CT26 tumors established for 10 days in WT mice were treated with one local injection of doxorubicin in the absence or presence of neutralizing anti-IL-1β Ab (n=10/group, *p<0.05). FIG. 17e. A single-nucleotide polymorphism (SNP) in P2X7 (rs3751143) affects the long-term efficacy of conventional anti-cancer therapy in breast cancer patients. Comparative Kaplan-Meier estimates of time to metastasis in two groups of patients bearing the normal (Glu496Glu) or loss-of-function (Glu496Ala) P2X7 alleles.” left out
# Wild type or loss-of-function C57BL/6 mice were injected s.c. with 10^6 EL4 cells into the right flank. […] The tumor surface was monitored using a caliper. […]
# OT-1 CD8+ T cells = experiment: In vitro stimulation of OT-1 cells by BM-DC loaded with oxaliplatin-treated EG7; assay type: cell-based, mouse; details: rIL-1β 100 ng/ml or IL-12 10 ng/ml added to cocultures
# Procedure: (§3) FIG. 15. IL-1β-dependent CTL priming by dying tumor cells in vitro and in vivo. FIG. 15a. MyD88 is required at the level of the host but not that of the APC. DC from WT mice were first loaded with antigen (OVA holoprotein with C/P adjuvant, live or oxaliplatin-treated EG7 cells) and then injected into the footpad of into WT or MyD88^−/− recipients (n=6 mice/group). Five days later, the local immune response was measured as in FIG. 2d,e. Results of one typical experiment out of three are depicted. FIG. 15b. Casp-1 and IL-1β-dependent OT-I priming in vitro. The differentiation of IFNγ producing CD8^+ OT-1 cells was induced by incubating naïve OVA-specific TCR transgenic OT-1 lymphocytes with syngeneic BM-DC (derived from WT or Casp-1^−/− mice) that were loaded with oxaliplatin-treated EG7 for 2 days in vitro. […] Exogenous addition of rIL-1β (100 ng/ml) or IL-12 (10 ng/ml) to cocultures of Casp-1^−/− DC loaded with dying tumor cells and incubated with OT1 restored T cell priming. […] FIG. 15c. Specific and direct polarizing effects of IL-1β on T lymphocytes in vitro. Purified CD3^+ CD8^+ T cells derived from naïve WT mice were stimulated with anti-CD3 and anti-CD28 mAb for 5 days in the presence of the indicated cytokines (10 ng/ml for IL-12p70, 100 ng/ml for IL-1β, IL-6 and TNFα) -and IFNγ production was measured as in FIG. 3b. FIG. 15d. […]
# CD3+ CD8+ T cells = experiment: In vitro stimulation of CD8+ T-cells with anti-CD3 and anti-CD28 mAb plus cytokines; assay type: cell-based, mouse; details: CD3 plus CD28 cross-linking; 10 ng/ml IL-12p70, 100 ng/ml IL-1β, IL-6, TNFα
# Procedure: as §3
molecule,measurement,setting,value
COc1cccc2c1C(=O)c1c(O)c3c(c(O)c1C2=O)C[C@@](O)(C(=O)CO)C[C@@H]3O[C@H]1C[C@H](N)[C@H](O)[C@H](C)O1 [doxorubicin],release of ATP,CT26 colon cancer cells,released ATP
same,Annexin V+ DAPI+ cells,CT26 cells [1],~50%
"Nc1ncnc2c1ncn2[C@@H](C=O)O[C@@H](C=O)COP(=O)(O)OP(=O)(O)OP(=O)(O)O [oxiATP, 2′,3′-dialdehyde derivative of ATP]",T cell priming triggered by OVA protein plus adjuvant,[2]; OVA with PolyI:C+CpG in presence of oxiATP,did not affect T cell priming
same,T cell priming by oxaliplatin-treated EG7 cells,"[2]; cells admixed with oxiATP, footpad, C57Bl/6 mice",abolished T cell priming
same,efficacy of vaccination with dying tumor cells,CT26 cells [3],prevent the efficacy of vaccination
"IL-1Ra: recombinant IL-1 receptor antagonist, Kineret Anakinra (Amgen)",T cell priming in vivo by oxaliplatin-treated EG7 cells (IFNγ after restimulation with OVA),[2]; IL-1Ra co-injected into the footpad,failed to prime T cells in vivo
same,cytoplasmic IFNγ staining of CD3+CD8+ T lymphocytes,"[2]; IL-1Ra co-injected, restimulation with PMA-ionomycin, flow cytometry",failed to stain positively for cytoplasmic IFNγ
same,tumor-specific IFNγ response of T cells primed by dying CT26 cells,[4],abolished
same,effect on the response of EL4 tumors to oxaliplatin,EL4 thymoma tumors,blunted the response
same,effect on the response of CT26 tumors to anthracyclines,CT26 tumors,blunted the response
B1,T cell priming in Nalp3−/− or Casp1−/− mice,"[2]; cytokine co-injected with oxaliplatin-treated EG7: rIL-1β 250 ng, rIL-12 50 ng, rIL-6 250 ng per footpad",restored deficient T cell priming
same,priming capacity of Casp-1−/− DC for OT-1 cells (IFNγ),OT-1 CD8+ T cells,restored the priming capacity
same,IFNγ production by naive CD3+CD8+ splenic T cells,CD3+ CD8+ T cells,"failed to produce IFNγ, unless IL-113"
